ChEMBL document CHEMBL4049397, “Design, synthesis and evaluation of derivatives based on pyrimidine scaffold as potent Pan-Raf inhibitors to overcome resistance” (Eur J Med Chem, 2017)

Assay: in vitro
Details: human, liver microsomes

`CNC(=O)c1cc(Oc2ccc(NC(=O)Nc3ccc(Cl)c(C(F)(F)F)c3)cc2)ccn1` [SORAFENIB] showed a half-life at 0.5 µM of 5.6 h.
